# In PMC3878761, “Interactions of peptide triazole thiols with Env gp120 induce irreversible breakdown and inactivation of HIV-1 virions” (Retrovirology, 2013):
# Entries after “also recorded” stand apart in the source; their conditions may differ. Like-named read-outs stand apart in the source and are kept apart here.
# What was measured:
# HIV-1 BaL pseudovirus [1] = test system: HIV-1 BaL pseudovirus
# HIV-1 BaL pseudovirus [2] = assay: gp120 shedding from HIV-1 BaL pseudovirus (western blot)
# [3] = test system: fully infectious HIV-1 BaL virions; details: read-out: p24 release IC50 (*, fully infectious), 30 min at 37°C, p24 capture ELISA, ± SD
# Method: (§2) The replication competent virions were assayed for peptide triazole-induced inhibition of infection, gp120 shedding and p24 release in a BSL-2 facility. Gradient purification of the viruses and p24 release assays were performed as with pseudoviruses (described in Materials and Methods above). Cell infection by virus and its inhibition by peptide triazoles were tested using a modified version of a previously reported p24 ELISA assay [60]. The p24 release assays as well as detection of gp120 shedding were conducted as with the BaL pseudovirions (described in Materials and Methods above).
# (§3) Virions were purified using 6-20% iodixanol gradient and p24 content measured using ELISA. […] HOS CD4^+ve CCR5^+ve cells seeded, at 8,000 cells per well in a 96 well plate, were incubated for 24 hours followed by addition of pre-incubated inhibitor-virus mixture. […] Further, the peptide triazole and cell-free virus were pre-incubated for 30 min at 37°C followed by spinning for 2 hours at 13,600 rpm in a table top centrifuge (Eppendorf) at 4°C. Supernatant was separated and p24 content determined using the p24 capture ELISA (explained in the main Materials and Methods section) and gp120 using western blot analysis (explained in the Supplementary Text above).
# HIV-1 BaL pseudovirus [4] = assay: TEM morphology of treated virions; details: KR13 1 μM, 24 hours
# [5] = test system: fully infectious HIV-1 BaL virions; assay: gp120 shedding from fully infectious HIV-1 BaL; details: read-out: gp120 shedding IC50 (*, fully infectious), 30 min at 37°C, western blot, ± SD
# Method: as §2, §3
# HIV-1 BaL pseudovirus [6] = assay: p24 release from HIV-1 BaL pseudovirus (ELISA)
# [7] = test system: gp41 of HIV-1 BaL pseudovirus (2 F5 epitope); assay: exposure of gp41 MPER epitope, 2 F5 ELISA; details: fixed BaL pseudovirions, 30 min at 37°C (dose) or 1 μM (time), n = 3
# Method: (§1) We also measured the presence of gp41 epitopes for human mAb’s 2 F5 and 4E10 using an altered ELISA detection method to minimize virus particle disruption. […] Virus fractions were collected and fixed with equal volume of 0.1% paraformaldehyde for 30 minutes at 4°C. The treated virus fractions were spun at 16,000 X g for 2 hours at 4°C in an Eppendorf table top centrifuge. Following PBS wash, fixed virions were coated on an ELISA plate at 50 μl per well and incubated overnight at 4°C. The plate was blocked with 3% BSA, and ELISA was used to detect gp41 epitopes with human gp41 antibodies 2 F5 and 4E10 followed by addition of anti-human IgG HRP secondary antibody.
# [8] = test system: gp41 of HIV-1 BaL pseudovirus (4E10 epitope); assay: exposure of gp41 MPER epitope, 4E10 ELISA; details: fixed BaL pseudovirions, 30 min at 37°C (dose) or 1 μM (time), n = 3
# Method: as §1
# [9] = test system: gp41 of HIV-1 BaL pseudovirus (98–6 epitope); assay: gp41 content of treated virions, mAb 98-6 western blot; details: western blot mAb 98–6, BaL pseudovirus
# [10] = test system: pseudotype virions bearing the HIV-1 BaL envelope glycoprotein; details: determined by release of the p24 capsid protein; cited from earlier work
# Excerpt: Since gp120 is the first viral protein to interact with the host cell, it is an attractive target for inhibiting infection. […] This inhibition is mediated by binding to a region of gp120 that partially overlaps the CD4 binding site.
# HIV-1 YU2 gp120 = target: T1, HIV-1 YU2 gp120 (Human immunodeficiency virus type 1 group M subtype B, UniProt P35961); assay: SPR direct binding to immobilized YU2 gp120; details: immobilized YU2 gp120, PBS + 0.005% Tween 20, pH 7.2, 25°C
# T1 construct: made in house; host or cells: 293F cells
# Method: (Additional file 1: Figure S2). […] Direct binding of the peptide triazole to sensor chip immobilized HIV-1 YU2 gp120 was measured as previously described using Surface Plasmon Resonance (SPR) with a Biacore 3000 optical biosensor (GE Healthcare). […] The cell viability was measured using the tetrazolium salt premix reagent, WST-1 from Takara Bio Inc. following the manufacturer’s protocol. The formazan product was measured using the microplate reader at absorbance wavelength 460 nm (Molecular Devices).
# [11] = test system: CHO-K1 cells expressing gp160; assay: gp120 shedding and lysis, CHO-K1 cells expressing gp160; format: cell-based; details: unpublished results, manuscript in preparation
# [12] = test system: R5-tropic and X4-tropic HIV-1; parameters: method as in 2 sources, one per row (each row's own in cited_ref): ref 7-9, 12 = [7]; PMID 20518583; doi:10.2165/11203940-000000000-00000; Perry CM Maraviroc: a review of its use in the management of CCR5-tropic HIV-1 infection Drugs 2010 10 9 1189 1213 10.2165/11203940-000000000-00000 20518583 || [8]; PMID 23541872; doi:10.1016/j.antiviral.2013.03.017; Haqqani AA Tilton JC Entry inhibitors and their use in the treatment of HIV-1 infection Antiviral Res 2013 10 2 158 170 10.1016/j.antiviral.2013.03.017 23541872 || [9]; PMID 23290628; doi:10.1016/j.coviro.2012.12.002; Henrich TJ Kuritzkes DR HIV-1 entry inhibitors: recent development and clinical use Curr Opin Virol 2013 10 1 51 57 10.1016/j.coviro.2012.12.002 23290628 PMC4213740 || [12]; PMID 17933722; Emmelkamp JM Rockstroh JK CCR5 antagonists: comparison of efficacy, side effects, pharmacokinetics and interactions–review of the literature Eur J Med Res 2007 10 9 409 417 17933722 ||| ref 34 = [34]; PMID 23470147; doi:10.1021/bi400166b; Emileh A Tuzer F Yeh H Umashankara M Moreira DR Lalonde JM Bewley CA Abrams CF Chaiken IM A model of peptide triazole entry inhibitor binding to HIV-1 gp120 and the mechanism of bridging sheet disrupt; details: cited from earlier work
# [13] = KR13 1 μM or HNG156 100 μM, 1 min to 24 hours, 37°C
# [14] = KR13 (1 μM), 30 minutes exposure, n = 3
smiles,measurement,setting,value
CC[C@H](C)[C@H](NC(=O)[C@@H](N)CCCNC(=N)N)C(=O)N[C@@H](CC(N)=O)C(=O)N[C@@H](CC(N)=O)C(=O)N[C@H](C(=O)N1C[C@@H](n2cc([C]34[CH]5[CH]6[CH]7[CH]3[Fe]6754389%10[CH]4[CH]3[CH]8[CH]9[CH]4%10)nn2)C[C@H]1C(=O)N[C@@H](Cc1c[nH]c2ccccc12)C(=O)N[C@@H](CO)C(=O)N[C@@H](CCC(=O)O)C(=O)N[C@@H](C)C(=O)N[C@@H](CCSC)C(=O)N[C@@H](CCSC)C(=O)NCCC(=O)N[C@@H](CCC(N)=O)C(=O)NCCC(=O)N[C@@H](CS)C(N)=O)[C@@H](C)CC (stereo partly drawn) [KR13],kinetics of infectivity inhibition versus gp120 shedding,HIV-1 BaL pseudovirus [1]; [13],infectivity inhibition and gp120 shedding had similar kinetics
same,loss of infectivity,HIV-1 BaL pseudovirus [1]; [14],65-70%
same,"inhibition of infection, in words",HIV-1 BaL pseudovirus [1]; single round infection assay,inhibited infection
same,"gp120 shedding, in words",HIV-1 BaL pseudovirus [2],caused gp120 shedding
same,loss of gp120,HIV-1 BaL pseudovirus [2]; [14],65-70%
same,IC50,[3],4400 nM
same,core morphology of virions,HIV-1 BaL pseudovirus [4],"substantially different, with a shriveled and disordered appearance"
same,reduction of virion diameter,"HIV-1 BaL pseudovirus [4]; 37°C, n = 16",> 50%
same,IC50,[5],1200 nM
same,kinetics of p24 release,HIV-1 BaL pseudovirus [6]; [13],delayed kinetically
same,loss of p24,HIV-1 BaL pseudovirus [6]; [14],10%
same,reduction in virion p24 content,"HIV-1 BaL pseudovirus [6]; KR13 (1 μM), 360 minutes",50%
same,IC50,"HIV-1 BaL pseudovirus [6]; read-out: p24 release IC50, 30 minutes, gradient fractionation, capture ELISA, 1% triton X = 100%, ± SD, n > 3",32 ± 10 nM
same,reactivity to 2 F5,[7],reactivity to 4E10 and 2 F5 increased in a dose-dependent manner; also recorded: time dependent exposure of the MPER epitope
same,reactivity to 4E10,[8],reactivity to 4E10 and 2 F5 increased in a dose-dependent manner; also recorded: time dependent exposure of the MPER epitope
same,gp41 retention / 98–6 detection,[9],gp41 remained associated with virions; also recorded: gp41 was detected only weakly by 98–6 in either soluble or virion-associated fractions
same,lysis of BaL pseudotype virions,[10],induced lysis of pseudotype virions bearing the HIV-1 BaL envelope glycoprotein
same,"SPR direct binding to gp120, in words",HIV-1 YU2 gp120,proportionally increasing binding responses to immobilized gp120 at increasing concentrations of KR13
same,"gp120 shedding, CHO-K1 cells expressing gp160",[11],caused gp120 shedding
same,lysis of CHO-K1 cells expressing gp160,[11],did not lyse the cells
same,inhibition of R5- and X4-tropic viruses,[12],potent inhibitor of R5- and X4-tropic viruses
